This note sets out measurements from patent US20190175633A1, “REACTIVE, LIPOPHILIC NUCLEOSIDE BUILDING BLOCKS FOR THE SYNTHESIS OF HYDROPHOBIC NUCLEIC ACIDS” (Ionovation GmbH, priority 2017, published 2019).

The test system of one data set is IGR-OV1 cells. Kind of data set: Oncological test against IGR-OV1 cells. Type of data set: cell-based, human. The following applies: IGR-OV1, FIGS. 12 and 13. An excerpt: (§1) FIGS. 10 to 17 show the activity of compounds ESP_2.2, ESP_2.5 and ESP_31 according to the invention as well as the comparative examples ESP_2 and ESP_3 (Table 4) in relation to the concentration employed against various different cancer cells. […] The x-axis depicts the molar concentration of the respective compound on a logarithmical scale.
The epithelial morphology of IGR-OV1 cells was retained during in vitro and in vivo passages. Two cytogenetic markers characterize IGR-OV1 cells: a paracentric inversion of chromosome 3, and a translocation between chromosomes 2 and 5. These characteristics make the IGR-OV1 cell line a suitable experimental model for the treatment of human ovarian carcinomas and for biological studies of human solid tumors.

The subject of data set [1] is human colorectal adenocarcinoma cell line HCT15. Type of data set: cell-based. The following applies: for activity on cell growth (growth inhibition / cytotoxic effect): HCT-15, FIGS. 14 and 15. An excerpt: The x-axis depicts the molar concentration of the respective compound on a logarithmical scale.
The test system of data set [2] is primary clear renal cell adenocarcinoma (cell line 786-0). Nature of the data set: Oncological test against 786-0 cells. Type of data set: cell-based. As to conditions: 786-0, FIGS. 16 and 17.
Source text: as §1
This cell line is derived from a primary clear renal cell adenocarcinoma. The cells display both microvilli and desmosomes, and can be grown in soft agar. The cells produce a PTH like peptides that is identical to peptides produced by breast and lung tumors. The peptide has an N terminal sequence similar to PTH, has PTH like activity, and has a molecular weight of 6000 daltons.

A further data set concerns various cancer cells. Kind of data set: Oncological tests, summary over FIGS. 10 to 17. The following applies: ovarian, colon and kidney cancer cells. Type of data set: cell-based.
Source text: as §1

Entries after “also recorded” stand apart in the source; their conditions may differ.

As to `CCOC(=O)CCC1(C)O[C@@H]2[C@H](O1)[C@@H](CO)O[C@H]2n1ncc(=O)n(C/C=C(\C)CC/C=C(\C)CCC=C(C)C)c1=O` (stereo partly drawn) [ESP_2.5, Ethyl-3-((3aR,4R,6R,6aR)-4-(3,5-dioxo-4-((2E,6E)-3,7,11-trimethyldodeca-2,6,10-trien-1-yl)-4,5-dihydro-1,2,4-triazin-2 (3H)-yl)-6-(hydroxymethyl)-2-methyltetrahydrofuro[3,4-d][1,3]dioxol-2-yl)propanoate], the “activity on cell growth (growth inhibition / cytotoxic effect)” value with IGR-OV1 cells is reported as “improved inhibition effect”; in data set [1], “increased activity”; in data set [2], “high cytotoxic effect”. The “death of the cells (cytotoxic effect)” value in data set [1] (HCT-15, employed in high dosage) is on record as “over 50%”. In addition, the “activity / cytotoxicity against various cancer cells” value in the data set on various cancer cells is listed as “particular high cytotoxicity”.

One may read the melting point as the temperature, or range, at which the solid turns liquid. `CCCCCCCCCCCCCCCC1(CCCCCCCCCCCCCCC)OC2C(CO)OC(n3ccc(=O)[nH]c3=O)C2O1` (stereo not drawn) [Compound 25d, 1-(6-Hydroxymethyl-2,2-dipentadecyl-tetrahydro-furo[3,4-d][1,3]dioxol-4-yl)-1H-pyrimidin-2,4-dione] registered a melting point of 93 °C.

Compound `CCCCCCCCCCCCCCCCCCN(CCCCCCCCCCCCCCCCCC)C(C)C(=O)OC` (stereo not drawn) [Compound 41, Methyl N,N-dioctadecyl-2-aminopropionate] displayed a melting point of 44 to 45 °C.

For `CCCCCCCCCCCCCCCCCCNC(=O)CCC(=O)OC` [Compound 59, Methyl 4-(octadecylamino)-4-oxobutanoate], the melting point lay within 86 to 87 °C.

Consider `CCCCCCCCCCCCCCCCCCN(CCCCCCCCCCCCCCCCCC)C(=O)CCC(=O)O` [Compound 46, 4-(Dioctadecylamino)-4-oxobutanoic acid], for which the melting point lay in the range of 68 to 69 °C.

`CCCCCCCCCCCCCC1(CCCCCCCCCCCCC)O[C@@H]2[C@H](O1)[C@@H](CO)O[C@H]2n1ccc(=O)[nH]c1=O` [Compound 25c, 1-((3aR,4R,6R,6aR)-6-(hydroxymethyl)-2,2-ditridecyltetrahydrofuro[3,4-d][1,3]dioxol-4-yl)pyrimidin-2,4(1H,3H)-dione] registered a melting point of 90.1 °C.

Compound `COc1ccc(C(OC[C@H]2O[C@@H](n3cnc4c(=O)n(C/C=C(\C)CC/C=C(\C)CCC=C(C)C)cnc43)C[C@@H]2O)(c2ccccc2)c2ccc(OC)cc2)cc1` [Compound 4b, 9-((2R,4S,5R)-5-((Bis(4-methoxyphenyl)(phenyl)methoxy)-methyl)-4-hydroxytetrahydrofuran-2-yl)-1-((2E,6E)-3,7,11-trimethyldodeca-2,6,10-trienyl)-1H-purin-6(9H)-on] showed a melting point of 68 °C.

For `CCCCCCCCCCCCCCCCCCN(CCCCCCCCCCCCCCCCCC)CC(=O)O` [Compound 37, N,N-dioctadecylglycine], the melting point was 102 to 103 °C.

Compound `CCCCCCCCCCCCCCCCCCN(CCCO)CCCCCCCCCCCCCCCCCC` [Compound 42, 3-(Dioctadecylamino)propanol] came in with a melting point of 48 to 49 °C.

With `CCCCCCCCCCCCCCCCCCNC(=O)CCC(=O)O` [Compound 58, 4-(Octadecylamino)-4-oxobutanoic acid], the melting point was 124 to 125 °C.

Regarding `CCCCCCCCCCCCCCCCCCN(CCBr)CCCCCCCCCCCCCCCCCC`, the melting point is 69 to 71 °C.

`C#CCN(CCCCO)CCCCCCCCCCCCCCCCCC` [Compound 63, 4-[Octadecyl(prop-2-ynyl)amino]butan-1-ol] gave a melting point of 33 to 34 °C.

Consider `CCCCCCCCCCCCCCCCCCN(CCCCCCCCCCCCCCCCCC)C(=O)CCC(=O)OC` [Compound 47, Methyl 4-(dioctadecylamino)-4-oxobutanoate], for which the melting point lay within 29 to 30 °C.

Consider `CCOC(=O)CC[C@@]1(C)O[C@@H]2[C@H](O1)[C@@H](COC(c1ccccc1)(c1ccccc1)c1ccc(OC)cc1)O[C@H]2n1ncc(=O)[nH]c1=O` [ESP_2.2, Ethyl-3-((3aR,4R,6R,6aR)-4-(3,5-dioxo-4,5-dihydro-1,2,4-triazin-2(3H)-yl)-6-(((4-methoxyphenyl)diphenylmethoxy)methyl)-2-methyltetrahydrofuro[3,4-d][1,3]dioxol-2-yl)propanoate], for which the results for the “activity on cell growth (growth inhibition / cytotoxic effect)” value (with IGR-OV1 cells; in data set [1]) were “activity of the compound could be increased” and “increased activity”, respectively.

For the compound `CCCCCCCCCCCCCCCCCCNC(=O)CCCO` [Compound 62, 4-Hydroxy-N-octadecylbutanamide], the melting point is 86 to 87 °C.

Consider `CCCCCCCCCC1(CCCCCCCCC)OC2[C@@H](CO)O[C@@H](n3ccc(=O)[nH]c3=O)[C@H]2O1` (stereo partly drawn) [ESP_31], for which the “activity on cell growth (growth inhibition / cytotoxic effect)” value with IGR-OV1 cells is “vast improvement with respect to the cytotoxic activity”; in data set [1] it was “high cytotoxic activity”; in data set [2], “cytotoxic effect”.

`CCCCCCCCCCCCCCCCCCN(CC#CCCl)CCCCCCCCCCCCCCCCCC` [Compound 51, 4-Chloro-N,N-dioctadecylbut-2-yn-1-amine] returned a melting point of 51 to 52 °C.

The compound `CCCCCCCCCCCCCCCCCCNCCCCO` [Compound 60, 4-(Octadecylamino)butan-1-ol] displayed a melting point of 68 to 69 °C.

The compound `CCCCCCCCCCCCCCCCCCN1CCCC1` gave a melting point of 25 to 27 °C.

`O=c1ccn([C@@H]2O[C@H](CO)[C@@H](O)[C@H]2O)c(=O)[nH]1` [ESP_3, uridine, reference compound]: the “activity on cell growth (growth inhibition / cytotoxic effect)” value in the data set with IGR-OV1 cells is listed as “did not even cause a growth inhibition”; in data set [2], “does not show any activity at all; also recorded: did not show any activity at all”.

`C#CCN(CC#C)CCCCCCCCCCCCCCCCCC` [Compound 57, N-Octadecyl-N,N-diprop-2-ynylamine] displayed a melting point of 43 to 44 °C.

`CCCCCCCCCC1(CCCCCCCCC)O[C@@H]2[C@H](O1)[C@@H](CO)O[C@H]2n1ccc(=O)[nH]c1=O` [Compound 25b, 1-((3aR,4R,6R,6aR)-6-(hydroxymethyl)-2,2-dinonyltetrahydrofuro[3,4-d][1,3]dioxol-4-yl)pyrimidin-2,4(1H,3H)-dione] yielded a melting point of 69.8 °C.

For `CCCCCCCCCCCCCCCCCCN(CCCCO)CCCCCCCCCCCCCCCCCC` [Compound 48a, 4-(Dioctadecylamino)butan-1-ol], the melting point was 57 to 58 °C.

With `COc1ccc(C(OC[C@H]2O[C@@H](n3cnc4c(=O)n(C/C=C(\C)CCC=C(C)C)cnc43)C[C@@H]2O)(c2ccccc2)c2ccc(OC)cc2)cc1` [Compound 4a, 9-((2R,4S,5R)-5-((Bis(4-methoxyphenyl)(phenyl)methoxy)-methyl)-4-hydroxytetrahydrofuran-2-yl)-1-((E)-3,7-di-methylocta-2,6-dienyl)-1H-purin-6(9H)-one], the melting point is 74 °C.

For the compound `CCCCCCCCCCCCCCCCCCN(CC#CCN(CCCCCCCCCCCCCCCCCC)CCCCCCCCCCCCCCCCCC)CCCCCCCCCCCCCCCCCC` [Compound 52, N,N,N′,N′-Tetraoctadecylbut-2-yne-1,4-diamine], the melting point lay within 55 to 56 °C.
